Data as given in patent US20210283163A1, “COMPOSITIONS AND METHODS FOR THE TREATMENT OF ACUTE AND CHRONIC PRURITIS” (Duke University, priority 2018, published 2021).

Molecular target: hTRPA1 (Homo sapiens, UniProt O75762)
Assay: Calcium imaging (Fura-2) in TRPA1-expressing HEK293 cells
Assay type: cell-based
Settings: 50 μM
Protocol: Ca^2+ Imaging. Ca ^2+ imaging was conducted in mouse DRG and TG neurons from Pirt-GCaMP3 mice (Anderson et al., Neurosci. Bull. 2018, 34, 194-199) at room temperature. The imaging buffer includes 140 mM NaCl, 10 mM D-(+)-Glucose, 1 mM MgCl2, 2 mM CaCl2, 5 mM KCl, 10 mM HEPES, pH=7.4, osmolarity=320 mOsm/L. Calcium signals were measured using green emitted light in a 3 s interval. Ca ^2+ signal amplitudes were presented as ΔF/F0=(Ft−F0)/F0 as ratio of fluorescence difference (Ft−F0) to basal value (F0). The average fluorescence intensity in the baseline period was taken as F0. Ca ^2+ imaging was also analyzed in HEK293-TRPA1 cell line after loading cells with […] fura2-AM (Invitrogen) for 40 min in the Ca^2+ imaging buffer. Ca^2+ imaging protocol was a ratio metric method with 340/380-nm wavelength light for dual excitation. Data were presented as ΔR/R0, determined as the fraction ΔR (Rt−R0) of the increase of a given ratio over baseline ratio (R0).

Sequence of hTRPA1 (O75762 whole entry): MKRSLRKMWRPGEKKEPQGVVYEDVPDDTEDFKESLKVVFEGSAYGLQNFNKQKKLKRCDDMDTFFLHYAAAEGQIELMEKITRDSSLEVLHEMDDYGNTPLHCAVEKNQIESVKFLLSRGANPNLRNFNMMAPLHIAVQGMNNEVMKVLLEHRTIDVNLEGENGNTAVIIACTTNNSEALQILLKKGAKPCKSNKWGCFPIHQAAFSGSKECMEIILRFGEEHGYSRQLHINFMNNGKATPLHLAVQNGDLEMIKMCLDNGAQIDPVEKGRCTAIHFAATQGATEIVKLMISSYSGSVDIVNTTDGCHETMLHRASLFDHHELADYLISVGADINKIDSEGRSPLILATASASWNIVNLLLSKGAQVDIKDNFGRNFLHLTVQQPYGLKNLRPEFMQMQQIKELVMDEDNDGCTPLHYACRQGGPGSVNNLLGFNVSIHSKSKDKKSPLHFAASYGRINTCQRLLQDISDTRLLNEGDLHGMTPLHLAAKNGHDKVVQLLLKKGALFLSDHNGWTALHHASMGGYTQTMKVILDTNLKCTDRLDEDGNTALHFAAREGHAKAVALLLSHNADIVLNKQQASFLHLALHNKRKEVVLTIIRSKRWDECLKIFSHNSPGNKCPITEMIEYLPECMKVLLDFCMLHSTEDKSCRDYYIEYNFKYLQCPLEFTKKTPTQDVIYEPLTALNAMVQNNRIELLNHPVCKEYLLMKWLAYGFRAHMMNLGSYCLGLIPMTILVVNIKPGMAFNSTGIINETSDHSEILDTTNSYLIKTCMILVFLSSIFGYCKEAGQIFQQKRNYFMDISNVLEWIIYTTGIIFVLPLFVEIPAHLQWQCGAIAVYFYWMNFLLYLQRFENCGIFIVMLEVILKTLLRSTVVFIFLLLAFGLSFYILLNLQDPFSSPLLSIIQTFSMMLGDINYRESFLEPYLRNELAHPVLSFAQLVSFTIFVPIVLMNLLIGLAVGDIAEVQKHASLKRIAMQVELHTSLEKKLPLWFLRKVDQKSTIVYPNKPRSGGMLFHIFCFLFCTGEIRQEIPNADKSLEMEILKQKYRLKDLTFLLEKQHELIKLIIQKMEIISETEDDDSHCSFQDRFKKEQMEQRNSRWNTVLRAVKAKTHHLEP

miR-711: mmu-miR-711: gggacccggggagagauguaag (SEQ ID NO: 5) (GGGACCCGGGGAGAGAUGUAAG; chemistry not given here)
calcium responses in TRPA1-expressing HEK293 cells: evoked calcium responses
